The assay concerns the target Human FP Receptor (Homo sapiens (Human), UniProt P43088). As to the kind of experiment: In vitro test of inhibition of human FP receptor activity, variant B-1A (PGF2α-induced calcium flux in FP-expressing CHEM1 cells). In kind it is cell-based. The following applies: calcium flux induced by 3 nM PGF2α, Fluo-8, some mean values from multiple determinations. An excerpt: • BSA bovine serum albumin • CRTH2 chemoattractant receptor-homologous molecule expressed on T helper type 2 cells • DMEM Dulbecco's modified Eagle's medium • DMSO dimethyl sulfoxide • DP PGD2 receptor • EC50 half-maximum effective concentration • em. emission • EP PGE2 receptor • ex. excitation • FCS fetal calf serum • FP PGF2α receptor • HEPES 2-[4-(2-hydroxyethyl)piperazin-1-yl]ethanesulfonic acid • IC50 half-maximum inhibitory concentration • IP PGI2 receptor • MES 2-(N-morpholino)ethanesulfonic acid • Pen/Strep penicillin/streptomycin • PGD2 prostaglandin D2 • PGE2 prostaglandin E2 • PGF2α prostaglandin F2α • PGI2 prostaglandin […] • TC tissue culture • TP thromboxane A2 receptor • Tris tris(hydroxymethyl)aminomethane • v/v volume to volume ratio (of a solution) • w/w weight to weight ratio (of a solution) B-1.
(In general: Calcium assays in cells follow changes in intracellular calcium, usually with a dye or a luminescent sensor.)

Here are results for 35 compounds from patent US10189788B2, “Substituted N,2-diarylquinoline-4-carboxamides and the use thereof as anti-inflammatory agents” (BAYER PHARMA AKTIENGESELLSCHAFT, priority 2014, dated 2019).

Sequence of Human FP Receptor (P43088 whole entry): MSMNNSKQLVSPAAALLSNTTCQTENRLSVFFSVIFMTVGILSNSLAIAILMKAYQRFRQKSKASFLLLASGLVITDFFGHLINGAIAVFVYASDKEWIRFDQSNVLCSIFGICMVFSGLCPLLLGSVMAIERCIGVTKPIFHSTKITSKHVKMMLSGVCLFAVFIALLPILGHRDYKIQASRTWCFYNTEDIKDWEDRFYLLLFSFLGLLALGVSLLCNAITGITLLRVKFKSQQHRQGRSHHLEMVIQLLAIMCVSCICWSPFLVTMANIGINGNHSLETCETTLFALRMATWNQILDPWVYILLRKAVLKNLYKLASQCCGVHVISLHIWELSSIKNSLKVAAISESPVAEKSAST

The IC50 is the point on the concentration scale where inhibition reaches its midpoint. With `Cc1c(-c2ccccc2)nc2ccc(Br)cc2c1C(=O)Nc1ccc(C(=O)O)cc1` [Example 1, 4-{[(6-Bromo-3-methyl-2-phenylquinolin-4-yl)carbonyl]amino}benzoic acid], the IC50 was found to be 166 nM.
Turning to `Cc1c(-c2ccccc2)nc2ccc(Br)cc2c1C(=O)Nc1cnc(C(=O)O)cn1` [Example 3, 5-{[(6-Bromo-3-methyl-2-phenylquinolin-4-yl)carbonyl]amino}pyrazine-2-carboxylic acid], the IC50 worked out at 170 nM.
Regarding `Cc1c(-c2ccccc2)nc2ccc(Br)cc2c1C(=O)Nc1cnc(C(=O)O)nc1` [Example 4, 5-{[(6-Bromo-3-methyl-2-phenylquinolin-4-yl)carbonyl]amino}pyrimidine-2-carboxylic acid], the IC50 is 880 nM.
The figure for `Cc1nc(C(=O)O)ccc1NC(=O)c1c(C)c(-c2ccccc2)nc2ccc(Br)cc12` [Example 5, 5-{[(6-Bromo-3-methyl-2-phenylquinolin-4-yl)carbonyl]amino}-6-methylpyridine-2-carboxylic acid] is 905 nM; for `Cc1c(-c2ccccc2)nc2ccc(Br)cc2c1C(=O)Nc1ncc(C(=O)O)cc1F` [Example 6, 6-{[(6-Bromo-3-methyl-2-phenylquinolin-4-yl)carbonyl]amino}-5-fluoronicotinic acid] it is 79 nM.
Consider `Cc1c(-c2ccccc2)nc2ccc(Br)cc2c1C(=O)Nc1ccc(C(=O)O)c(F)c1` [Example 8, 4-{[(6-Bromo-3-methyl-2-phenylquinolin-4-yl)carbonyl]amino}-2-fluorobenzoic acid], for which the IC50 worked out at 795 nM.
The figure for `Cc1c(-c2ccccc2)nc2ccc(Br)cc2c1C(=O)Nc1ccc(C(=O)O)cc1Cl` [Example 9, 4-{[(6-Bromo-3-methyl-2-phenylquinolin-4-yl)carbonyl]amino}-3-chlorobenzoic acid] is 65 nM; for `Cc1c(-c2ccccc2)nc2ccc(Br)cc2c1C(=O)Nc1ccc(C(=O)O)cc1Br` [Example 10, 3-Bromo-4-{[(6-bromo-3-methyl-2-phenylquinolin-4-yl)carbonyl]amino}benzoic acid] it is 41 nM.
To `Cc1c(-c2ccccc2)nc2ccc(Br)cc2c1C(=O)Nc1c(F)cc(C(=O)O)cc1F` [Example 12, 4-{[(6-Bromo-3-methyl-2-phenylquinolin-4-yl)carbonyl]amino}-3,5-difluorobenzoic acid] belongs 22 nM; to `Cc1c(-c2ccccc2)nc2ccc(Br)cc2c1C(=O)Nc1c(Cl)cc(C(=O)O)cc1Cl` [Example 13, 4-{[(6-Bromo-3-methyl-2-phenylquinolin-4-yl)carbonyl]amino}-3,5-dichlorobenzoic acid], 150 nM.
To `Cc1cc(C(=O)O)ccc1NC(=O)c1c(C)c(-c2ccccc2)nc2ccc(Br)cc12` [Example 14, 4-{[(6-Bromo-3-methyl-2-phenylquinolin-4-yl)carbonyl]amino}-3-methylbenzoic acid] belongs 617 nM; to `Cc1c(-c2ccccc2)nc2ccc(Br)cc2c1C(=O)Nc1ccc(C(=O)O)cc1C(F)(F)F` [Example 15, 4-{[(6-Bromo-3-methyl-2-phenylquinolin-4-yl)carbonyl]amino}-3-(trifluoromethyl)benzoic acid], 45 nM; to `Cc1c(-c2ccccc2)nc2ccc(Br)cc2c1C(=O)Nc1ccc(C(=O)O)cc1C#N` [Example 16, 4-{[(6-Bromo-3-methyl-2-phenylquinolin-4-yl)carbonyl]amino}-3-cyanobenzoic acid], 278 nM.
As to `Cc1c(-c2ccccc2)nc2ccc(Br)cc2c1C(=O)Nc1ccc(C(=O)O)cc1N` [Example 18, 3-Amino-4-{[(6-bromo-3-methyl-2-phenylquinolin-4-yl)carbonyl]amino}benzoic acid], the IC50 came out at 335 nM.
The figure for `CC(=O)Nc1cc(C(=O)O)ccc1NC(=O)c1c(C)c(-c2ccccc2)nc2ccc(Br)cc12` [Example 19, 3-Acetamido-4-{[(6-bromo-3-methyl-2-phenylquinolin-4-yl)carbonyl]amino}benzoic acid] is 650 nM; for `CCNC(=O)Nc1cc(C(=O)O)ccc1NC(=O)c1c(C)c(-c2ccccc2)nc2ccc(Br)cc12` [Example 20, 4-{[(6-Bromo-3-methyl-2-phenylquinolin-4-yl)carbonyl]amino}-3-[(ethylcarbamoyl)amino]benzoic acid] it is 530 nM.
Consider `COc1cc(C(=O)O)ccc1NC(=O)c1c(C)c(-c2ccccc2)nc2ccc(Br)cc12` [Example 21, 4-{[(6-Bromo-3-methyl-2-phenylquinolin-4-yl)carbonyl]amino}-3-methoxybenzoic acid], for which the IC50 came to 204 nM.
The figure for `Cc1c(-c2ccccc2)nc2ccc(Br)cc2c1C(=O)Nc1ccc(C(=O)O)cc1OC(F)(F)F` [Example 23, 4-{[(6-Bromo-3-methyl-2-phenylquinolin-4-yl)carbonyl]amino}-3-(trifluoromethoxy)benzoic acid] is 57 nM.
As to `CSc1cc(C(=O)O)ccc1NC(=O)c1c(C)c(-c2ccccc2)nc2ccc(Br)cc12` [Example 24, 4-{[(6-Bromo-3-methyl-2-phenylquinolin-4-yl)carbonyl]amino}-3-(methylsulfanyl)benzoic acid], the IC50 turned out to be 124 nM.
The figure for `Cc1c(-c2ccccc2)nc2ccc(Br)cc2c1C(=O)Nc1ccc(C(=O)O)cc1[S+](C)[O-]` (centres unmarked) [Example 25, 4-{[(6-Bromo-3-methyl-2-phenylquinolin-4-yl)carbonyl]amino}-3-(methylsulfinyl)benzoic acid] is 720 nM; for `Cc1c(-c2ccccc2)nc2ccc(Br)cc2c1C(=O)Nc1ccc(C(=O)O)cc1S(C)(=O)=O` [Example 26, 4-{[(6-Bromo-3-methyl-2-phenylquinolin-4-yl)carbonyl]amino}-3-(methylsulfonyl)benzoic acid] it is 86 nM; for `CCS(=O)(=O)c1cc(C(=O)O)c(OC)cc1NC(=O)c1c(C)c(-c2ccccc2)nc2ccc(Br)cc12` [Example 27, 4-{[(6-Bromo-3-methyl-2-phenylquinolin-4-yl)carbonyl]amino}-5-(ethylsulfonyl)-2-methoxybenzoic acid] it is 97 nM.
To `Cc1c(-c2ccccc2)nc2ccc(Br)cc2c1C(=O)Nc1ccc(C(=O)O)cc1SC(F)(F)F` [Example 28, 4-{[(6-Bromo-3-methyl-2-phenylquinolin-4-yl)carbonyl]amino}-3-[(trifluoromethyl)sulfanyl]benzoic acid] belongs 17 nM; to `Cc1c(-c2ccccc2)nc2ccc(F)cc2c1C(=O)Nc1ccc(C(=O)O)cc1F` [Example 29, 3-Fluoro-4-{[(6-fluoro-3-methyl-2-phenylquinolin-4-yl)carbonyl]amino}benzoic acid], 890 nM; to `Cc1c(-c2ccccc2)nc2ccc(I)cc2c1C(=O)Nc1ccc(C(=O)O)cc1F` [Example 30, 3-Fluoro-4-{[(6-iodo-3-methyl-2-phenylquinolin-4-yl)carbonyl]amino}benzoic acid], 6 nM.
For `Cc1ccc2nc(-c3ccccc3)c(C)c(C(=O)Nc3ccc(C(=O)O)cc3F)c2c1` [Example 31, 4-{[(3,6-Dimethyl-2-phenylquinolin-4-yl)carbonyl]amino}-3-fluorobenzoic acid], the IC50 worked out at 165 nM.
Consider `CCc1ccc2nc(-c3ccccc3)c(C)c(C(=O)Nc3ccc(C(=O)O)cc3F)c2c1` [Example 32, 4-{[(6-Ethyl-3-methyl-2-phenylquinolin-4-yl)carbonyl]amino}-3-fluorobenzoic acid], for which the IC50 turned out to be 245 nM.
For the compound `Cc1c(-c2ccccc2)nc2ccc(C(C)C)cc2c1C(=O)Nc1ccc(C(=O)O)cc1F` [Example 33, 3-Fluoro-4-{[(6-isopropyl-3-methyl-2-phenylquinolin-4-yl)carbonyl]amino}benzoic acid], the IC50 came to 272 nM.
In the case of `Cc1c(-c2ccccc2)nc2ccc(C(F)(F)F)cc2c1C(=O)Nc1ccc(C(=O)O)cc1F` [Example 34, 3-Fluoro-4-({[3-methyl-2-phenyl-6-(trifluoromethyl)quinolin-4-yl]carbonyl}amino)benzoic acid], the IC50 is 93 nM.
With `Cc1c(-c2ccccc2)nc2ccc(OC(F)(F)F)cc2c1C(=O)Nc1ccc(C(=O)O)cc1F` [Example 35, 3-Fluoro-4-({[3-methyl-2-phenyl-6-(trifluoromethoxy)quinolin-4-yl]carbonyl}amino)benzoic acid], the IC50 was 290 nM.
In the case of `Cc1c(-c2ccccc2)nc2ccc([Si](C)(C)C)cc2c1C(=O)Nc1ccc(C(=O)O)cc1F` [Example 36, 3-Fluoro-4-({[3-methyl-2-phenyl-6-(trimethylsilyl)quinolin-4-yl]carbonyl}amino)benzoic acid], the IC50 was 78 nM.
The figure for `O=C(O)c1ccc(NC(=O)c2c(CF)c(-c3ccccc3)nc3ccc(Br)cc23)c(F)c1` [Example 37, 4-({[6-Bromo-3-(fluoromethyl)-2-phenylquinolin-4-yl]carbonyl}amino)-3-fluorobenzoic acid] is 39 nM; for `O=C(O)c1ccc(NC(=O)c2c(C(F)F)c(-c3ccccc3)nc3ccc(Br)cc23)c(F)c1` [Example 38, 4-({[6-Bromo-3-(difluoromethyl)-2-phenylquinolin-4-yl]carbonyl}amino)-3-fluorobenzoic acid] it is 265 nM.
To `CCc1c(-c2ccccc2)nc2ccc(Br)cc2c1C(=O)Nc1ccc(C(=O)O)cc1F` [Example 39, 4-{[(6-Bromo-3-ethyl-2-phenylquinolin-4-yl)carbonyl]amino}-3-fluorobenzoic acid] belongs 190 nM.
The figure for `CCCc1c(-c2ccccc2)nc2ccc(Br)cc2c1C(=O)Nc1ccc(C(=O)O)cc1F` [Example 40, 4-{[(6-Bromo-2-phenyl-3-propylquinolin-4-yl)carbonyl]amino}-3-fluorobenzoic acid] is 560 nM.
